The target in assay [1] is horse plasma butyrylcholinesterase (eqBuChE) (Equus caballus (Horse), UniProt P81908). In words: Ellman's test, inhibition of horse plasma butyrylcholinesterase. In kind it is biochemical. The method, boiled down: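 Modified Ellman assay: compound preincubated 5 min with enzyme and DTNB in 0.1 M phosphate buffer pH 8.0 at 25° C (eqBuChE) or 36° C (hBuChE), then butyrylthiocholine added; absorbance change at 412 nm read after 5 min. Screening at 10 μM (eqBuChE) or 1 μM (hBuChE); IC50 by non-linear regression, triplicates.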
For orientation: In Ellman's method for cholinesterases, released thiocholine reacts with DTNB.

For assay [2], the target named is Recombinant human Aβ1-42 peptide (Homo sapiens (Human), UniProt P05067). Nature of the assay: Thioflavin T test, antiaggregation activity against beta-amyloid. It counts as biochemical. The conditions noted are these: 10 μM test compound, 1.5 μM Aβ1-42; read-out: inh. Aβ aggr. % inh. The method, boiled down:
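Aβ1-42 (1.5 μM final, HFIP-pretreated) aggregated in HEPES pH 7.4 with 150 mM NaCl, thioflavin T 10 μM, 3% DMSO, compound 10 μM. Fluorescence (ex 440/em 490 nm) read every 300 s with mixing; plateau values minus t=0 give % inhibition; IC50 by non-linear regression against concentration.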

The next assay has as its target mGAT4 (Mus musculus (Mouse), UniProt P31650). In words: [3H]GABA uptake inhibition, mGAT4 in HEK293 cells. It counts as cell-based. The note with it: GABA reuptake. The protocol: Exemplary compounds according to the invention were screened at the Ludwig-Maximilian University of Munich to determine the inhibitory ability towards four mouse GAT transporters (mGAT1-mGAT4). […] The biological material was stably transfected human embryonic kidney HEK293 cells, expressing genes to the appropriate transporters. The generated radioactivity was measured with a liquid scintillation counter. […] These determinations were made according to the procedure described in detail in A. Kragler, G. Höfner, K. T. Wanner, Novel parent structures for inhibitors of the murine GABA transporters mGAT3 and mGAT4, Eur. J. Pharmacol. 519 (2005) 43-47.

The subject of a further assay is Albino Swiss CD-1 mice. Nature of the assay: Passive avoidance task (scopolamine-induced memory disorders). In kind it is in vivo, Mus musculus. The note with it: scopolamine 1 mg/kg s.c. The procedure: The research was conducted at the Department of Pharmacodynamics, Faculty of Pharmacy, Jagiellonian University in Krakow. All procedures were approved by the 1st and 2nd Local Ethics Committee for Animal Experiments in Krakow (consent no. 53/2017 and 250/2019) and were performed in accordance with the applicable European Union regulation (86/609/EEC). Males of two different strains of domestic mice (Mus musculus) were used in the study: Albino Swiss CD-1 (body weight approx. 20-24 g, age approx. 6 weeks) and C57BL/6J mice (body weight approx. 18-22 g, age approx. 6 weeks). The CD-1 strain was used for the passive avoidance, spontaneous mobility and rotating rod tests, while the C57BL/6J mice were used for the Morris water maze and the Barnes' maze. The animals were kept in standard, appropriately sized cages, divided into groups with a maximum of 10 animals. The animals in the study groups in the learning phase were intraperitoneally administered the test compound 1 h before the start of the experiments (doses in the preliminary test, i.e. in the passive avoidance test: 10, 30 and 60 mg/kg), and 30 minutes later, 1 mg/kg of scopolamine subcutaneously. Two control groups were used in the tests to assess the procognitive activity of JT-3—one of them received saline and the other saline and scopolamine.
The test assesses contextual memory. The apparatus consists of two chambers (white: 26 cm×26 cm×34 cm; dark: 13 cm×7.5 cm×7.5 cm) separated by a door. The test consists of a two-day procedure. On the first day (acquisition phase), test compound or saline was administered to the animals 1 h prior to testing (i.p. administration). In order to induce memory disorders, scopolamine (1 mg/kg, s.c.) was also administered after 30 min. On the first day of testing, the mouse was placed in the white compartment. […] The latency of entry into the dark chamber was measured. […] After 30 s the door between the compartments was opened and, similarly to the acquisition phase, the latency time of entering the dark compartment was measured. […]

Sequence of horse plasma butyrylcholinesterase (eqBuChE) (P81908 whole entry): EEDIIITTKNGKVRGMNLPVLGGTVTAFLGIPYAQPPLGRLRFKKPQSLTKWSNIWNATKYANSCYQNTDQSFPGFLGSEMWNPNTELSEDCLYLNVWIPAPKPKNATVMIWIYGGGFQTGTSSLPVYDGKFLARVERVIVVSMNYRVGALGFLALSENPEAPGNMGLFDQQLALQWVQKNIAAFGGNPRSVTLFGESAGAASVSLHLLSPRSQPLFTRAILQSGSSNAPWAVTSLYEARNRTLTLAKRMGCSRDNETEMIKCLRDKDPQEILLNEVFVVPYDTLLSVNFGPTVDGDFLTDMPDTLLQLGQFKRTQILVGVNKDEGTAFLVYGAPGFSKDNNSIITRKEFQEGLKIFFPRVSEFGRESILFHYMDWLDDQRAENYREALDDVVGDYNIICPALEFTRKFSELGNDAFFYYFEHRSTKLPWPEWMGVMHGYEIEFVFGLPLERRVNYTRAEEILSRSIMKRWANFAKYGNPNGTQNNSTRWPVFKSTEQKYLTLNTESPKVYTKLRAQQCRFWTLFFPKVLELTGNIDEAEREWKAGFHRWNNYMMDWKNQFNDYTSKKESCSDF
Sequence of Recombinant human Aβ1-42 peptide (P05067 672-713): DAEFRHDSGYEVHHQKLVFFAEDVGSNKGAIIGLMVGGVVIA
Sequence of mGAT4 (P31650 whole entry): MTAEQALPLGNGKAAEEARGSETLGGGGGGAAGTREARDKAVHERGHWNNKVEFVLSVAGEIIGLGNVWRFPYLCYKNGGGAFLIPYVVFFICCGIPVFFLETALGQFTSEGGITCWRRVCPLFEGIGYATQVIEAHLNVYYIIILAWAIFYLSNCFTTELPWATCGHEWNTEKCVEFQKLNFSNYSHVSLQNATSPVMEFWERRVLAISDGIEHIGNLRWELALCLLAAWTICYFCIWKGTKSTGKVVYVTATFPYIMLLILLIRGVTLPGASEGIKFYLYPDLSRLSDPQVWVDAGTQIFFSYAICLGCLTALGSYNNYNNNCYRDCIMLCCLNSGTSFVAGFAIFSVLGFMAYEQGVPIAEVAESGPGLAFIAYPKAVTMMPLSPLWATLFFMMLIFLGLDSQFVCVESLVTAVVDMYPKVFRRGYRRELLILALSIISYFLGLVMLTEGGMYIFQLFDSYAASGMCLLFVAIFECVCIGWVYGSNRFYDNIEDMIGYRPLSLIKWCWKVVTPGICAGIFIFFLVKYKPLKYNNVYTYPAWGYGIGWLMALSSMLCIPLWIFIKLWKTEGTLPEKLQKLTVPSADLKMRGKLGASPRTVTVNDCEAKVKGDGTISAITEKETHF

Turning to `O[C@H](CNCC1CC1)[C@H](Cc1ccccc1)NC1c2ccccc2-c2ccccc21` [JT-3, (2R,3S)-3-((9H-fluoren-9-yl)amino)-1-((cyclopropylmethyl)amino)-4-phenylbutan-2-ol], half-maximal inhibition in assay [1] (IC50) was put at 313 nM. Besides, the inhibition at 10 µM in assay [2] was determined as 79%. Also, the “pIC50 (+/−SEM) mGAT4” value at mGAT4 is reported as 5.11 +/− 0.02. The “latency of entry into the dark compartment, recall phase (day 2) vs scopolamine control” value is “statistically significant difference” in the assay on Albino Swiss CD-1 mice (10 mg/kg i.p., p<0.01); “not active” with Albino Swiss CD-1 mice (30 mg/kg i.p.); “not active” in the assay on Albino Swiss CD-1 mice (60 mg/kg i.p.).

Usually IC50 stands for the point on the concentration scale where inhibition reaches its midpoint. Read a high IC50 as lower potency.

These data come from US12492163B2, “9H-fluorene derivatives or their pharmaceutically acceptable salts” (priority 2020, dated 2025).
